# In patent US4585859A, “Analogues of morpholinyl daunorubicin and morpholinyl doxorubicin” (priority 1984, dated 1986):
# “And” between values parts separate entries of the source, which are not always exact repeats. Equal values may be shown once. Read-outs that look alike come from different tables or passages of the source.
# Legend:
# [1] = prior art; cited from earlier work
# [2] = test system: DNA; details: cited from earlier work
# [3] = test system: mouse leukemia P388; details: cited from earlier work; for activity in mouse leukemia P388 screen / dose requirement in P388 screen: 3-dose schedule q4d 5,9,13
# [4] = test system: P-388 leukemia; test: Mouse antitumor efficacy vs P-388 leukemia (Table B)
# [5] = test system: B-16 Melanoma; test: Mouse antitumor efficacy vs B-16 Melanoma (Table B)
# [6] = test system: Lymphocyte Leukemia P-388; test: Survival time of mice inoculated i.p. with Lymphocyte Leukemia P-388, treated days 5, 9 and 13 (Table A); assay type: in vivo, mouse
# [7] = test system: DNA synthesis in L 1210 Cells; test: Inhibition of DNA synthesis in L 1210 Cells; assay type: cell-based, mouse
# [8] = test system: RNA synthesis in L 1210 Cells; test: Inhibition of RNA synthesis in L 1210 Cells; assay type: cell-based, mouse
# [9] = P-388 in mice, q4d 5,9,13, at optimum dose
# [10] = Mus musculus, L1210, L-1210 cells, DNA synthesis, read-out: Leukemia L-1210 Cells Inhibition of Synthesis ED50, DNA
# [11] = Mus musculus, L1210, L-1210 cells, RNA synthesis, read-out: Leukemia L-1210 Cells Inhibition of Synthesis ED50, RNA
# [12] = Mus musculus, L1210, read-out: Leukemia L-1210 Cells Inhibition of Synthesis ED50, DNA
# [13] = Mus musculus, L1210, read-out: Leukemia L-1210 Cells Inhibition of Synthesis ED50, RNA
smiles,measurement,setting,value
COc1cccc2c1C(=N)c1c(O)c3c(c(O)c1C2=O)C[C@@](O)(C(=O)CO)C[C@@H]3O[C@H]1C[C@H](N)[C@H](O)[C@H](C)O1 [5-iminodoxorubicin],"antitumor activity, side effects and dosage",[1],showed enhanced activity but required higher dosages
"COc1cccc2c1C(=O)c1c(O)c3c(c(O)c1C2=O)C[C@@](O)(C(C)=O)C[C@@H]3O[C@H]1C[C@H](N(Cc2ccccc2)Cc2ccccc2)[C@H](O)[C@H](C)O1 [N,N-dibenzyldaunorubicin]",interaction with DNA in vitro,[2],fail to interact with DNA in vitro
same,activity in mouse leukemia P388 screen,[3],most active new analogues so far
same,dose requirement in P388 screen,[3],required significantly higher doses
"COc1cccc2c1C(=O)c1c(O)c3c(c(O)c1C2=O)C[C@@](O)(C(=O)CO)C[C@@H]3O[C@H]1C[C@H](N2CCOCC2C#N)[C@H](O)[C@H](C)O1 (some centres unmarked) [NSC 357704, 3'-deamino-3'-(3""-cyano-4""-morpholinyl)doxorubicin]","Mouse Antitumor Efficacy at Optimum Dose, % T/C","[4]; mouse, in vivo",152% and > 158%
same,Optimum Dose,"[4]; mouse, in vivo",0.05 mg/kg and 0.1 mg/kg
same,"Mouse Antitumor Efficacy at Optimum Dose, % T/C","[4]; mouse, in vivo, ip",262% and > 360%
same,Optimum Dose,"[4]; mouse, in vivo, ip",0.0125 mg/kg and 0.0063 mg/kg
same,"Mouse Antitumor Efficacy at Optimum Dose, % T/C","[5]; mouse, in vivo, ip",> 138% and 123%
COc1cccc2c1C(=N)c1c(O)c3c(c(O)c1C2=O)C[C@@](O)(C(C)=O)C[C@@H]3O[C@H]1C[C@H](N)[C@H](O)[C@H](C)O1 [5-Iminodaunorubicin],"antitumor activity, side effects and dosage",[1],retained activity with reduced side effects
"COc1cccc2c1C(=O)c1c(O)c3c(c(O)c1C2=O)C[C@@](O)(C(C)=O)C[C@@H]3O[C@H]1C[C@H](N2CCOCC2)[C@H](O)[C@H](C)O1 [NSC 327451, 3'-deamino-3'-(4""-morpholinyl)daunorubicin]","Survival Time, % T/C",[6]; [9],166%
same,IC50,[7]; [10],760 nM
same,IC50,[8]; [11],100 nM
same,"Mouse Antitumor Efficacy at Optimum Dose, % T/C","[4]; ip P388, d 1, ip",155%
same,Optimum Dose,"[4]; ip P388, d 1, ip",0.25 mg/kg
same,"Mouse Antitumor Efficacy at Optimum Dose, % T/C","[4]; ip P388, d 1, iv",152%
same,Optimum Dose,"[4]; ip P388, d 1, iv",0.5 mg/kg
same,active dose relative to the dose of doxorubicin,"[3]; prior art, P388",one-fortieth the dose of doxorubicin
same,T/C value against P388,"[3]; prior art, U.S. Pat. No. 4,301,277",166%
same,"Mouse Antitumor Efficacy at Optimum Dose, % T/C","[5]; section ""ip B16"", d 1, ip",135%
"COc1cccc2c1C(=O)c1c(O)c3c(c(O)c1C2=O)C[C@@](O)(C(O)CO)C[C@@H]3O[C@H]1C[C@H](N2CCOCC2C#N)[C@H](O)[C@H](C)O1 (some centres unmarked) [NSC 360291, 3'-deamino-3'-(3""-cyano-4""-morpholinyl)-13-dihydrodoxorubicin]","Survival Time, % T/C",[6]; [9],150%
same,"Mouse Antitumor Efficacy at Optimum Dose, % T/C","[4]; mouse, in vivo, ip",183% and 267%
same,Optimum Dose,"[4]; mouse, in vivo, ip",0.05 mg/kg and 0.025 mg/kg
same,"Mouse Antitumor Efficacy at Optimum Dose, % T/C","[5]; mouse, in vivo, ip",149% and 121%
"COc1cccc2c1C(=O)c1c(O)c3c(c(O)c1C2=O)C[C@@](O)(C(C)O)C[C@@H]3O[C@H]1C[C@H](N2CCC(OC)CC2)[C@H](O)[C@H](C)O1 (some centres unmarked) [NSC 334354, 3'-deamino-3'-(4'-methoxy-1-piperidinyl)-13-dihydrodaunorubicin]","Survival Time, % T/C",[6]; [9],199%
same,IC50,[7]; [10],580 nM
same,IC50,[8]; [11],80 nM
"COc1cccc2c1C(=O)c1c(O)c3c(c(O)c1C2=O)C[C@@](O)(C(=O)CO)C[C@@H]3O[C@H]1C[C@H](N2CCOCC2)[C@H](O)[C@H](C)O1 [NSC 354646, 3'-deamino-3'-(4""-morpholinyl)doxorubicin]","Mouse Antitumor Efficacy at Optimum Dose, % T/C","[4]; ip P388, d 1, ip",182%
same,Optimum Dose,"[4]; ip P388, d 1, ip",0.05 mg/kg
same,"Mouse Antitumor Efficacy at Optimum Dose, % T/C","[4]; ip P388, d 1, iv",> 143%
same,Optimum Dose,"[4]; ip P388, d 1, iv",0.062 mg/kg
same,"Mouse Antitumor Efficacy at Optimum Dose, % T/C","[4]; ip P388, q4d 1,5,9, ip",224%
same,Optimum Dose,"[4]; ip P388, q4d 1,5,9, ip",0.05 mg/kg
same,"Mouse Antitumor Efficacy at Optimum Dose, % T/C","[4]; ip P388, q4d 1,5,9, po",175%
same,Optimum Dose,"[4]; ip P388, q4d 1,5,9, po",0.05 mg/kg
same,"Mouse Antitumor Efficacy at Optimum Dose, % T/C","[4]; ip P388, qd 1-9, ip",209%
same,Optimum Dose,"[4]; ip P388, qd 1-9, ip",0.0125 mg/kg
COc1cccc2c1C(=O)c1c(O)c3c(c(O)c1C2=O)C[C@@](O)(C(C)=O)C[C@@H]3O[C@H]1C[C@H](N)[C@H](O)[C@H](C)O1 [daunorubicin],"Survival Time, % T/C","[6]; mouse, in vivo",130%
same,IC50,[7]; [12],660 nM
same,IC50,[8]; [13],330 nM
same,"Mouse Antitumor Efficacy at Optimum Dose, % T/C","[5]; mouse, in vivo, ip",195%
"COc1cccc2c1C(=O)c1c(O)c3c(c(O)c1C2=O)C[C@@](O)(C(C)O)C[C@@H]3O[C@H]1C[C@H](N2CCOCC2)[C@H](O)[C@H](C)O1 (some centres unmarked) [NSC 327450, 3'-deamino-3'-(4""-morpholinyl)-13-dihydrodaunorubicin]","Survival Time, % T/C",[6]; [9],132%
same,IC50,[7]; [10],2200 nM
same,IC50,[8]; [11],670 nM
same,"Mouse Antitumor Efficacy at Optimum Dose, % T/C","[5]; section ""ip B16"", d 1, ip",121%
"COc1cccc2c1C(=O)c1c(O)c3c(c(O)c1C2=O)C[C@@](O)(C(C)=O)C[C@@H]3O[C@H]1C[C@H](N2CCC(OC)CC2)[C@H](O)[C@H](C)O1 [NSC 334353, 3-deamino-3'-(4""-methoxy-1""-piperidinyl)-daunorubicin]","Survival Time, % T/C",[6]; [9],199%
same,IC50,[7]; [12],630 nM
same,IC50,[8]; [13],120 nM
CCCCC(=O)OCC(=O)[C@]1(O)Cc2c(O)c3c(c(O)c2[C@@H](O[C@H]2C[C@H](NC(=O)C(F)(F)F)[C@H](O)[C@H](C)O2)C1)C(=O)c1c(OC)cccc1C3=O [AD32],interaction with DNA in vitro,[2],fail to interact with DNA in vitro
same,activity in mouse leukemia P388 screen,[3],most active new analogues so far
same,dose requirement in P388 screen,[3],required significantly higher doses
COc1cccc2c1C(=O)c1c(O)c3c(c(O)c1C2=O)C[C@@](O)(C(C)=O)C[C@@H]3O[C@H]1C[C@H](N2CCSCC2)[C@H](O)[C@H](C)O1,T/C vs mouse leukemia P388,[6]; at 50 mg/kg (thiomorpholino) or 8 mg/kg (doxorubicin),169%
same,dose required vs mouse leukemia P388,[6]; dose for the T/C quoted,50 mg/kg
"COc1cccc2c1C(=O)c1c(O)c3c(c(O)c1C2=O)C[C@@](O)(C(C)=O)C[C@@H]3O[C@H]1C[C@H](N2CCOCC2C#N)[C@H](O)[C@H](C)O1 (some centres unmarked) [NSC 332304, 3'-deamino-3'-(3""-cyano-4""-morpholinyl)daunorubicin]","Survival Time, % T/C",[6]; [9],197%
same,IC50,[7]; [12],12 nM
same,inhibition of RNA vs DNA synthesis,[8],much more inhibitory toward RNA synthesis than toward DNA synthesis
same,"Mouse Antitumor Efficacy at Optimum Dose, % T/C","[4]; ip P388, d 1, ip",175%
same,Optimum Dose,"[4]; ip P388, d 1, ip",0.25 mg/kg
same,"Mouse Antitumor Efficacy at Optimum Dose, % T/C","[4]; ip P388, d 1, iv",157%
same,Optimum Dose,"[4]; ip P388, d 1, iv",0.5 mg/kg
same,"Mouse Antitumor Efficacy at Optimum Dose, % T/C","[5]; section ""ip B16"", d 1, ip",138%
"COc1cccc2c1C(=N)c1c(O)c3c(c(O)c1C2=O)C[C@@](O)(C(O)CO)C[C@@H]3O[C@H]1C[C@H](N2CCOCC2)[C@H](O)[C@H](C)O1 (some centres unmarked) [NSC 355465, 3'-deamino-3'-(4""-morpholinyl)-5-imino-13-dihydrodoxorubicin]","Survival Time, % T/C",[6]; [9],161%
same,IC50,[7]; [12],> 100000 nM
same,IC50,[8]; [13],24000 nM
"COc1cccc2c1C(=O)c1c(O)c3c(c(O)c1C2=O)C[C@@](O)(C(=O)CO)C[C@@H]3O[C@H]1C[C@H](N2C(=O)COCC2C#N)[C@H](O)[C@H](C)O1 (some centres unmarked) [3'-deamino-3'-(3""-cyano-5""-oxo-4""-morpholinyl)-doxorubicin]",IC50,"[7]; l1210 cells, read-out: Leukemia L-1210 Cells Inhibition of Synthesis ED50, DNA",50 nM
same,IC50,"[8]; l1210 cells, read-out: Leukemia L-1210 Cells Inhibition of Synthesis ED50, RNA",30 nM
"COc1cccc2c1C(=N)c1c(O)c3c(c(O)c1C2=O)C[C@@](O)(C(=O)CO)C[C@@H]3O[C@H]1C[C@H](N2CCOCC2)[C@H](O)[C@H](C)O1 [NSC 355277, 3'-deamino-3'-(4""-morpholinyl)-5-iminodoxorubicin]","Mouse Antitumor Efficacy at Optimum Dose, % T/C","[4]; ip P388, d 1, ip",> 193%
same,Optimum Dose,"[4]; ip P388, d 1, ip",2 mg/kg
same,"Mouse Antitumor Efficacy at Optimum Dose, % T/C","[4]; ip P388, d 1, iv",166%
same,Optimum Dose,"[4]; ip P388, d 1, iv",2.5 mg/kg
"COc1cccc2c1C(=O)c1c(O)c3c(c(O)c1C2=O)C[C@@](O)(C(C)O)C[C@@H]3O[C@H]1C[C@H](N2CCOCC2C#N)[C@H](O)[C@H](C)O1 (some centres unmarked) [NSC 332305, 3'-deamino-3'-(3""-cyano-4""-morpholinyl)-13-dihydrodaunorubicin]","Survival Time, % T/C",[6]; [9],143%
same,IC50,[7]; [12],19 nM
same,inhibition of RNA vs DNA synthesis,[8],much more inhibitory toward RNA synthesis than toward DNA synthesis
same,"Mouse Antitumor Efficacy at Optimum Dose, % T/C","[5]; section ""ip B16"", d 1, ip",131%
